Read-outs that look alike come from different tables or passages of the source.
What was measured:
Protein binding = assay type: in vitro ADME
[1] = male, human, in vivo
Method: The changes from baseline (pre-dose assessment on Day 1) for body weight, physical examinations, vital signs, ECG-variables and clinical laboratory variables were determined for each time point. Treatment-emergent laboratory and ECG abnormalities as well as adverse events were monitored throughout the study, up to 28 Days after the last study drug intake.
The goal of this post-hoc optimization study was to repeat the ECG assessment with an highly automated computer-assisted approach where in addition to the re-evaluation of standard intervals (PR, QRS and QT intervals), a set of parameters describing repolarization morphology were considered. The morphology indices were the TpTe interval (interval from the T wave apex to the end of the T wave), the TpTe/QT index (the ratio between the TpTe interval and the QT interval), Tamp (the amplitude in microvolt units of the T wave) and TSym (an index of repolarization morphology based on the symmetry of the T wave).
ECGs were digitally recorded using a Schiller AT104 ECG machine (500 Hz, 1 μV). Cardiac interval measurements were performed on the Global Superimposed Median Beat (GSMB), a methodology that allows measurements that consider each of the 12 individual median beats. This measurement methodology ensures that the PR, QRS, and QT interval are measured from the earliest onset in any lead to the latest deflection in any lead. Cardiologist overview of the computer-based measurements is based on the superimposed (overlapped) display of the individual median beats, to assure measurements are performed at the earliest onset of any viable lead to the latest offset of any viable lead.
The RR interval used for heart-rate correction of the QT interval (QTcB) was based on all the beats in the ten second recording. […]
For the pre-dose (baseline) ECGs, all parameters per time point were calculated as the averages of the triplicate ECGs. […]
The over-reading cardiologist provided a clinical interpretation for each ECG at each time point. […]

[2] = SAD study pharmacokinetic analysis; assay type: in vivo, human; conditions: for AUC(0-t) / Cmax / Tmax / AUC(0-inf) / half-life: male, human, plasma, oral; for AUC(0-t): read-out: AUClast (Geomean); for Cmax: read-out: Cmax (Geomean); for AUC(0-inf): read-out: AUC0-inf (Geomean)
Method: Dose escalation to the next dose level was done after evaluation of the safety and the first 24-hour pharmacokinetic results of the previous dose. […] Anticipated exposures at this starting dose were just below the Minimum Anticipated Biological Effect Level (MABEL). Placebo (an in taste and appearance matching oral liquid) was also administered orally on one occasion in the single-ascending dose part and b.i.d. for 7 Days in the MAD part. […] All samples were stored at <-70° C. until analysis. […] For mean value calculations, all values below the limit of quantification (LOQ) were set to zero. […] The non-compartmental pharmacokinetic analysis was performed using Phoenix, Version 6.3 (Pharsight Corporation, Mountain View, Calif., USA). […] The PK parameters were calculated on the basis of the actual blood sampling time points relative to dosing. Selected pharmacokinetic parameters (Cmax, tmax, t1/2, AUClast and AUC0-int) following single-dose administration and selected pharmacokinetic parameters Cmax, tmax, [NT], the accumulation factor (Racc) and time to reach steady state) following multiple dose administration were determined. In urine, the percentage of dose excreted in urine was determined for the single- and multiple-dose administration.

CYP3A4 = CYP3A4 (Homo sapiens, UniProt P08684); experiment: In vitro metabolism; assay type: in vitro ADME
CYP3A4, sequence (P08684 whole entry): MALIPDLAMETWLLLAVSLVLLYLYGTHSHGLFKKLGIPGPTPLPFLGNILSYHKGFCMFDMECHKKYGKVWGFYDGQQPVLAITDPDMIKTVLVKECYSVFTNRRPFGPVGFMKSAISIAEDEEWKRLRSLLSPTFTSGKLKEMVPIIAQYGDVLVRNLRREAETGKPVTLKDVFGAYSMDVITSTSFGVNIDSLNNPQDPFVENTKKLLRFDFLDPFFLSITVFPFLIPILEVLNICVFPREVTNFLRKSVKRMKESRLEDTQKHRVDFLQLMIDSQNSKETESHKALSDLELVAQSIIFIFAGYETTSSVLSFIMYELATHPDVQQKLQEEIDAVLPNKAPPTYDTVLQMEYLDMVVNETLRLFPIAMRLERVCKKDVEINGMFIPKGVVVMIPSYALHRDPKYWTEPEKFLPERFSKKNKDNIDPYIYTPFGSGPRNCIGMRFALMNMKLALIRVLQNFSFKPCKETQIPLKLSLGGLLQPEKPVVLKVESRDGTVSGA

[3] = male, human, in vivo, 28 days
[4] = Phospholipidosis assessment in MAD study (urinary di-22:6-BMP, electron microscopy of peripheral leucocytes)
Method: Therefore, the presence of phospholipidosis was determined by the concentration of di-docosahexaenoyl (22:6)-bis(monoacylglycerol) phosphate (di-22:6-BMP) in a midstream urine sample and by electron microscopy of peripheral leucocytes at Day 1 and 7 in the MAD study (Pospischil A. et al, Exp. Toxicol Pathol 2010, 62:567-571).

[5] = 10 mg, SAD, KH176 10 mg, fasted
[6] = 30 mg, SAD, KH176 30 mg, fasted
[7] = 100 mg, SAD, KH176 100 mg, fasted
[8] = 300 mg, SAD, KH176 300 mg, fasted
[9] = 800 mg, SAD, KH176 800 mg, fasted
[10] = 2000 mg, SAD, KH176 2000 mg, fasted

Cc1c(C)c2c(c(C)c1O)CC[C@@](C)(C(=O)N[C@@H]1CCCNC1)O2.Cl [KH176, (S)-6-hydroxy-2,5,7,8-tetramethyl-N-((R)-piperidin-3-yl)chroman-2-carboxamide hydrochloride]
fraction unbound (Protein binding): 0.4 to 0.5 | KH176 exposure with no significant prolongation of the TpTe interval compared to placebo [1]: lower than 500 ng/ml | plasma concentrations at which effects on repolarization seem to start [1]: 500 to 1000 ng/mL | QTcF, largest median baseline increase ([1]; 1 h): 46.8 ms | AUC0-inf ratio (fed/fasted), 90% CI ([2]; 100 mg, fed versus fasted): 1.28 (90% Cl 1.12-1.45) | administered dose excreted in urine as unchanged KH176 ([2]; SAD): approximately 12% | AUC(0-t) [2, 5]: 75 ng·h/mL | Cmax [2, 5]: 12.9 ng/mL | Tmax ([2]; 10 mg, SAD, KH176 10 mg, fasted, read-out: tmax* (median)): 1.25 h | AUC(0-inf) [2, 6]: 474 ng·h/mL | AUC(0-t) [2, 6]: 389 ng·h/mL | Cmax [2, 6]: 56.2 ng/mL | half-life ([2]; 30 mg, SAD, KH176 30 mg, fasted, read-out: t1/2 (Geomean) (converted)): 10.3 h | Tmax ([2]; 30 mg, SAD, KH176 30 mg, fasted, read-out: tmax* (median)): 1.25 h | AUC(0-inf) [2, 7]: 1540 ng·h/mL | AUC(0-t) [2, 7]: 1310 ng·h/mL | Cmax [2, 7]: 167 ng/mL | half-life ([2]; 100 mg, SAD, KH176 100 mg, fasted, read-out: t1/2 (Geomean) (converted)): 9.1 h | Tmax ([2]; 100 mg, SAD, KH176 100 mg, fasted, read-out: tmax* (median)): 1 h | AUC(0-inf) ([2]; 100 mg, SAD, KH176 100 mg, fed): 1970 ng·h/mL | AUC(0-t) ([2]; 100 mg, SAD, KH176 100 mg, fed): 1650 ng·h/mL | Cmax ([2]; 100 mg, SAD, KH176 100 mg, fed): 165 ng/mL | half-life ([2]; 100 mg, SAD, KH176 100 mg, fed, read-out: t1/2 (Geomean) (converted)): 9.09 h | Tmax ([2]; 100 mg, SAD, KH176 100 mg, fed, read-out: tmax* (median)): 2.5 h | Tmax ([2]; 100 mg, fasted condition (100 mg), read-out: median tmax): ~1 h | Tmax ([2]; 100 mg, fed condition (100 mg, high calorie/high fat breakfast), read-out: median tmax): 2.5 h | AUC(0-inf) [2, 8]: 7500 ng·h/mL | AUC(0-t) [2, 8]: 6320 ng·h/mL | Cmax [2, 8]: 766 ng/mL | half-life ([2]; 300 mg, SAD, KH176 300 mg, fasted, read-out: t1/2 (Geomean) (converted)): 9.64 h | Tmax ([2]; 300 mg, SAD, KH176 300 mg, fasted, read-out: tmax* (median)): 0.992 h | AUC(0-inf) [2, 9]: 25800 ng·h/mL | AUC(0-t) [2, 9]: 21000 ng·h/mL | Cmax [2, 9]: 2170 ng/mL | half-life ([2]; 800 mg, SAD, KH176 800 mg, fasted, read-out: t1/2 (Geomean) (converted)): 9.8 h | Tmax ([2]; 800 mg, SAD, KH176 800 mg, fasted, read-out: tmax* (median)): 1.5 h | AUC(0-inf) [2, 10]: 79100 ng·h/mL | AUC(0-t) [2, 10]: 61200 ng·h/mL | Cmax [2, 10]: 5990 ng/mL | half-life ([2]; 2000 mg, SAD, KH176 2000 mg, fasted, read-out: t1/2 (Geomean) (converted)): 11.5 h | Tmax ([2]; 2000 mg, SAD, KH176 2000 mg, fasted, read-out: tmax* (median)): 0.75 h | Tmax ([2]; SAD, across doses, read-out: median tmax): 0.75 to 1.5 h | half-life ([2]; SAD, approximate, across dose groups, read-out: t1/2 (converted)): ~10 h | Tmax ([2]; single- and multiple-dose administration, read-out: median tmax): 0.75 to 2 h | metabolism (CYP3A4): metabolized by CYP3A4 | AEs rated mild in severity [3]: 35 | AEs reported by subjects in the highest dose group [3]: 28 | moderate AEs [3]: 6 | severe AEs [3]: 2 | subjects reporting AEs [3]: 14 subjects | total adverse events (AEs) reported [3]: 43 | di-22:6-BMP in urine, change from Day 1 to Day 7 ([4]; MAD group III (100 mg BID)): 0.74-2.50 ng/mg creatinine | di-22:6-BMP in urine, change from Day 1 to Day 7 ([4]; MAD group IV (200 mg BID)): −1.44-1.32 ng/mg creatinine | di-22:6-BMP in urine, change from Day 1 to Day 7 ([4]; MAD group V (400 mg BID)): −0.69-1.46 ng/mg creatinine | prevalence of phospholipidosis in granulocytes or monocytes by electron microscopy ([4]; in vivo): No increased prevalence

— patent publication US11285130B2, “Treatment of mitochondrial diseases” (Khondrion IP B.V., priority 2017, dated 2022)
